Two molecules from article PMC9224512, “New Insights into the Determinants of Specificity in Human Type I Arginase: Generation of a Mutant That Is Only Active with Agmatine as Substrate” (International Journal of Molecular Sciences, 2022) can be followed below.

Numbering of substitutions follows the chain as printed.

Common to all, as to type: biochemical
The target in assay [1] is T1, Chimera A2 (I129T/N130Y/T131A+∆ P132-T134) of human arginase type I (Homo sapiens, UniProt P05089, DEL129-131/I129T/L133Y/N130Y/P132T/T134A).
T1 construct: made in house; host or cells: E. coli JM109
T1 sequence (P05089 with tags, fused parts or gaps DEL129-131/P132T/L133Y/T134A): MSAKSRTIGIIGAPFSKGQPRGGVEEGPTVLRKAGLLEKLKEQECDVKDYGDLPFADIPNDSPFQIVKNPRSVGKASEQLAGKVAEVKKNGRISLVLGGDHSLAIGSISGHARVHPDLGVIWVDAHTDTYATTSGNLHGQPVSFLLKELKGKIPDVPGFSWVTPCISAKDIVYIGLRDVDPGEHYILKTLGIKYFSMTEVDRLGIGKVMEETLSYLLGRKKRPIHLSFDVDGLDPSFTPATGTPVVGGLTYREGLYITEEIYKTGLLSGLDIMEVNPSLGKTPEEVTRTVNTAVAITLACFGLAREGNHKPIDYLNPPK
Nature of the assay: Kinetic and inhibition studies, Chimera A2. The protocol: (§1) Bacterial cultures were grown with shaking at 37 °C in Luria Broth media, in the presence of ampicillin (100 μg/mL). The wild-type and mutant human liver arginase cDNAs were directionally cloned into the pBluescript II KS(+) expression vector and then expressed in E. coli JM109, following induction with 1 mM isopropyl β-D-thiogalactopyranoside. The bacterial cells were disrupted by sonication on ice (5 × 30 s pulses), centrifuged for 20 min at 12,000× g, and the obtained supernatant was precipitated with ammonium sulfate (60% saturation). The pellet, collected by centrifugation at 12,000× g for 10 min, was re-suspended in buffer 5 mM Tris–HCl (pH 7.5) containing 2 mM MnCl2 and dialyzed for 6 h at 4 °C against the same buffer. After incubation with 5 mM MnCl2 for 10 min at 60 °C, the enzyme variants were purified as previously described. The purity of the enzymes was evaluated by SDS–PAGE stained by Coomassie blue and immunodetection using an anti- rat arginase I antibody.
(§2) The single, double, triple, and chimera variants of human arginase type I were obtained by PCR, using the QuickChange site-directed mutagenesis kit (Stratagene, La Jolla, CA, USA); the plasmid pBluescript II KS(+) containing the human liver arginase cDNA was used as template. To obtain the chimeric species of human arginase type I, serial mutations were made in each loop to be modified, using as template DNA the wild-type arginase gene or the previous done mutation, subcloned in the plasmid pBluescript II KS (+). Specifically, the residues present in the arginase structure were replaced by those corresponding to the agmatinase sequence of E. coli.
(§3) All assays were initiated by adding the enzyme to a previously equilibrated buffer with the substrate in solution (the concentrations of used substrates were between 0.2–3 fold the Km). Urea was determined by a colorimetric method with α-isonitrosopropiophenone. The protein concentrations were determined by the Bradford’s method, with bovine serum albumin as standard. Initial velocity and enzymatic inhibition experiments were performed in duplicate and repeated three times. The inhibitory patterns were initially determined by double reciprocal plots and re-plots of intercepts and slopes versus inhibitor concentrations. […] Velocities are expressed as μmol of urea/10 min.

Assay [2] addresses T2, type I human arginase D181T (Homo sapiens, UniProt P05089, D181T).
T2 sequence (P05089 1-322 D181T): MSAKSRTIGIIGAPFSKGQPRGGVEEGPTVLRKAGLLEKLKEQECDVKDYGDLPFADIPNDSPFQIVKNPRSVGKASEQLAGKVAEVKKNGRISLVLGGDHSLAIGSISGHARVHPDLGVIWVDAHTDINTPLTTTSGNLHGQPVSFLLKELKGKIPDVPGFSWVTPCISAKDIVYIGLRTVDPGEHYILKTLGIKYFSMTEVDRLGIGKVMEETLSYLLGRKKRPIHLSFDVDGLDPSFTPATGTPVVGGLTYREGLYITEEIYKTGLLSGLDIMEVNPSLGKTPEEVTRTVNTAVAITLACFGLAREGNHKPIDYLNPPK
Nature of the assay: Kinetic and inhibition studies, D181T mutant. Conditions: substrate arginine. The method, then:
as §1, §2, §3

For assay [3], the target named is T3, human arginase type I S137C (Homo sapiens, UniProt P05089, S137C).
T3 sequence (P05089 1-322 S137C): T2 sequence (P05089 1-322 D181T) with S137C, T181D
Nature of the assay: Kinetic and inhibition studies, S137C mutant. The protocol: as §1, §2, §3

Assay [4] has as its target T4, human arginase type I S137C-N139D (Homo sapiens, UniProt P05089, N139D/S137C).
T4 construct: made in house; host or cells: E. coli JM109
T4 sequence (P05089 1-322 S137C/N139D): T2 sequence (P05089 1-322 D181T) with S137C, N139D, T181D
Nature of the assay: Kinetic and inhibition studies, S137C-N139D mutant. The method, then: as §1, §2
(§4) All assays were initiated by adding the enzyme to a previously equilibrated buffer with the substrate in solution (the concentrations of used substrates were between 0.2–3 fold the Km). Urea was determined by a colorimetric method with α-isonitrosopropiophenone. The protein concentrations were determined by the Bradford’s method, with bovine serum albumin as standard. […]

The target of assay [5] is T5, human arginase type I N130D-N139D (Homo sapiens, UniProt P05089, N130D/N139D).
T5 sequence (P05089 1-322 N130D/N139D): T2 sequence (P05089 1-322 D181T) with N130D, N139D, T181D
Kind of assay: Kinetic and inhibition studies, N130D-N139D mutant. The method, then:
as §1, §2, §4

[6] abbreviates: substrate = labelled compound, pH 9.5, 2 mM Mn2+.

With `N=C(N)NCCC[C@H](N)C(=O)O` [Arginine, L-arginine], the “Inhibition type” value in assay [1] (substrate agmatine) was “linear competitive inhibition”. For the same molecule, the Kis in assay [1] (substrate agmatine) turned out to be 9 ± 3 mM. For the same molecule, the kcat stood at 191 ± 8 s⁻¹ in assay [2], 75 s⁻¹ in assay [3] (substrate = labelled compound), 83 s⁻¹ in assay [4] (substrate = labelled compound) and 33 s⁻¹ in assay [5] (substrate = labelled compound). In addition, the Michaelis constant (Km) turned out to be 5.3 ± 0.8 mM in assay [2] (pH 9.5, 2 mM Mn2+); 3.2 mM in assay [3] (setting [6]); 10.8 mM in assay [4] (setting [6]); 6.1 mM in assay [5] (setting [6]).

Take `NCCC[C@H](N)C(=O)O` [Ornithine, L-ornithine]: the “Inhibition by ornithine compared with wild-type arginase” value in assay [1] (pH 9.5, 37 °C, substrate 5 mM, Figure 4A) was “much more insensitive to inhibition by ornithine than the wild-type arginase”. Also, in assay [2], the Inhibition type entry was “Competitive”. Besides, the Kis in assay [2] worked out at 1.6 ± 0.3 mM. Also, the values for the Ki in assay [3] (read-out: Ki^orn), in assay [4] (read-out: Ki^orn) and in assay [5] (read-out: Ki^orn) were 7.6 mM, 8.4 mM and 6.4 mM, respectively.

As usually defined, the kcat is the maximal rate divided by the concentration of active sites. In general, Km refers to the substrate concentration at which the rate is half of its maximum. Broadly, the Ki is the equilibrium dissociation constant of an inhibitor or competing ligand from its target.
